Data as given in patent publication US10646475B2, “SHMT inhibitors” (The Trustees of Princeton University, priority 2015, dated 2020).
Entries after “also recorded” stand apart in the source; their conditions may differ.

Key:
human MTHFD2 = molecular target: T1, human MTHFD2 (Homo sapiens, UniProt P13995); test: MTHFD2 in vitro assay (rate of NADH formation at 340 nm); format: biochemical; details: FIG. 3(c)
T1 sequence (P13995 36-350): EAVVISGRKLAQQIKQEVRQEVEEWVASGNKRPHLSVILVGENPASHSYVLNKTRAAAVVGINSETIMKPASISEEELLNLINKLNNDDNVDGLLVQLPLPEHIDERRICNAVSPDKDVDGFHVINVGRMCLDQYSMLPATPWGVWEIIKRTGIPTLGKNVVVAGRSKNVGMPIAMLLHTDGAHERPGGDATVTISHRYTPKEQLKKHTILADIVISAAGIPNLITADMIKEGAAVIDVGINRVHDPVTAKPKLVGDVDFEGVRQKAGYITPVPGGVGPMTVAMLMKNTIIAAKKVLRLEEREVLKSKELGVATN
From the text: For the MTHFD2 in vitro assay (FIG. 3(c)), the rate of NADH formation was directly monitored at 340 nm.

human SHMT2 = molecular target: T2, human SHMT2 (Homo sapiens, UniProt P34897); test: SHMT2 in vitro coupled enzymatic assay (coupled with excess MTHFD2, NADH absorption at 340 nm); format: biochemical; details: for IC50: inhibition of initial reaction velocity
T2 sequence (P34897 30-504): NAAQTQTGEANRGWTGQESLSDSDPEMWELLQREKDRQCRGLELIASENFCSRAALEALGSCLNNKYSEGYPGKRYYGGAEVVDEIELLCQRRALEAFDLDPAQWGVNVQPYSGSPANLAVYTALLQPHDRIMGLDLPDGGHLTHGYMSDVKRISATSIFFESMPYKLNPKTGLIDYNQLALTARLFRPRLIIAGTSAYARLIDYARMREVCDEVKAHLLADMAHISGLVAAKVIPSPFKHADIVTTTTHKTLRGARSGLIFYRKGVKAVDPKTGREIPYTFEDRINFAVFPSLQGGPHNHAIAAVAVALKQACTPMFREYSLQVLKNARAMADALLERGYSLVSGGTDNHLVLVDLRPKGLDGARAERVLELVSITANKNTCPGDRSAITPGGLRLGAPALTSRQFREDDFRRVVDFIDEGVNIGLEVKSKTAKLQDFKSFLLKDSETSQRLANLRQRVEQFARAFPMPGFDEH

human SHMT1 = molecular target: T3, human SHMT1 (Homo sapiens, UniProt P34896); test: SHMT1 in vitro coupled enzymatic assay (coupled with excess MTHFD2, NADH absorption at 340 nm); format: biochemical; details: for IC50: inhibition of initial reaction velocity
T3 sequence (P34896 1-483): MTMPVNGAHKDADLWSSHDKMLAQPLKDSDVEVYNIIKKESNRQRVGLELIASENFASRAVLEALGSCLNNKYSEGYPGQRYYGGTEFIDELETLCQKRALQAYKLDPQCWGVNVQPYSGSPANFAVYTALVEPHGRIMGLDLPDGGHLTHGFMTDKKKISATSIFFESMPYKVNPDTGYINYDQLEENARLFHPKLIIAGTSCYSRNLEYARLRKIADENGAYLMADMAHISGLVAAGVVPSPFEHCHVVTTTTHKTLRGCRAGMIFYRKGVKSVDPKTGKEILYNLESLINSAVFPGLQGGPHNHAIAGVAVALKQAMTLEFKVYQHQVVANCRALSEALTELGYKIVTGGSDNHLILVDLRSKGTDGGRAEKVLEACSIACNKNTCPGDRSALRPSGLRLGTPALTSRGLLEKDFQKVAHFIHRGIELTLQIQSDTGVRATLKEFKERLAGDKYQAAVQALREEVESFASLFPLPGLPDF

[1] = test system: human cells expressing SHMT2; test: Measurement of AICAR, marker for one-carbon unit stress, in cells; format: cell-based; details: treatment for 24 hours, increasing concentrations, FIG. 2(b)
Procedure: HEK-293T cells were cultured in 6-well plates in Dulbecco's modified eagle media (DMEM) without pyruvate with 10% dialysed fetal bovine serum in 5% CO2 at 37° C. […] Growth was quenched and metabolites extracted by aspirating media, washing cells with cold PBS, and immediately adding MeOH/water (80:20 at −80° C.). Supernatants from two rounds of extraction were combined, dried under N2, resuspended in water, placed in a 4° C. autosampler, and analyzed by reverse-phase ion-paring chromatography negative-mode electrospray-ionization high-resolution MS on a stand-alone orbitrap.
Generation of AICAR provides an assay to evaluate one-carbon unit stress. Inhibition of SHMT2 in cells decreases serine metabolism and leads to one-carbon stress. […] Such cells show high constitutive levels of 5-aminoimidazole-4-carboxamide ribonucleotide (AICAR), a marker for one-carbon unit stress, when cultured in media (left bar in FIG. 2(a)). This can be rescued by exogenous treatment with sodium formate (right bar in FIG. 2(a)).
(*) indicates AICAR was below the limit of detection.

[2] = test system: SHMT serine metabolic activity in SHMT2 expressing human cells; test: Isotope labeling of serine metabolism in cells (labeled serine, LC-MS); format: cell-based; details: uniformly labeled serine, FIG. 2(c)
Procedure: Using 2,3,3-^2H3-serine (D3-serine) as a tracer, mitochondrial flux was measured by quantifying the labeling pattern of dTTP, a downstream product of dTMP. […] This assay was used to examine mitochondrial serine flux and the effect of compounds of the disclosure on mitochondrial serine flux, in either wildtype or mutant cells.
Uniformly labeled serine is metabolized into various isoptomers in WT cells by the forward and reverse enzymatic activity of SHMT.

HEK293T cells = test: Cell growth assay (resazurin), wild-type HEK293T; format: cell-based, human; details: for inhibition of cell growth: varying concentrations
Procedure: HEK293T cells were cultured in 96-well plates in Dulbecco's modified eagle media (DMEM) without pyruvate with 10% dialysed fetal bovine serum (Invitrogen) in 5% CO2 at 37° C. 24 hours after plating, cells were treated with various concentrations of inhibitor. Growth was serially assessed using the resazurin (‘AlamarBlue’) assay.
(§1) The described cell lines used in Examples 9-11 were cultured in 96-well plates in Dulbecco's modified eagle media (DMEM) without pyruvate (CELLGRO) with 10% dialysed fetal bovine serum (Invitrogen) in 5% CO2 at 37° C. Approximately 2,500 cells were plated in each well in 90 uL of media. After 24 hours cells were treated with various concentrations of inhibitor (time=0 hours), with or without formate. Growth was assessed at multiple time points (time=0, 24, 48, 72 hours) through measurement of fluorescence at 595 nm (excitation at 535 nm) on a BioTek micro titer plate reader after incubation with resazurin (0.01 mg/mL for 1.5 hours). IC50 curves were generated from percent inhibition of growth at 72 hours.

[3] = test system: SHMT2 knock-out HEK293 cells; test: Cell growth assay (resazurin), SHMT2 knock-out 293T; format: cell-based, human; details: varying concentrations
Procedure: HEK293T cell lines mutant for SHMT1 and SHMT2 were created using the CRISPR-Cas9 system following standard published protocols. Single clones from successful transfections were grown up, genotyped and characterized.
(§2) Inhibitors of SHMT were evaluated in wildtype, SHMT2 knock-out, and MTHFD2 knock-out 293T cells (FIG. 6(a) and FIG. 6(b)).
as §1

[4] = test system: MTHFD2 knock-out HEK293T cells; test: Cell growth assay (resazurin), MTHFD2 knock-out 293T; format: cell-based, human; details: varying concentrations
Procedure: as §2, §1

[5] = test system: HCT116 human colon carcinoma cells; test: Cancer cell growth assay (resazurin), HCT116; format: cell-based; details: HCT116, varying concentrations, FIG. 7
Procedure: (§3) Inhibitors of SHMT were evaluated in various cancer cell lines. […] This cancer cell line comprises (harbors) a mutation in a component of the mitochondrial folate pathway. Specifically, one or more cells in this line comprise a mutation in the downstream mitochondrial folate enzyme, MTHFD1L.
as §1

[6] = test system: 8988T pancreatic cancer cells; test: Cancer cell growth assay (resazurin), 8988T; format: cell-based, human; details: 8988T (MTHFD1L mutation), varying concentrations, FIG. 7
Procedure: as §3, §1

COc1cccc(C2(C3CCC3)C(C#N)=C(N)Oc3[nH]nc(C)c32)c1 (racemic) [HK-2]
inhibition of human MTHFD2 in enzymatic assays (human MTHFD2): do not inhibit

Cc1n[nH]c2c1C(c1cc(Cl)cc(Cl)c1)(C1CCC1)C(C#N)=C(N)O2 (racemic) [HK-10]
IC50 (human SHMT2; Table A): 0.159 µM

Cc1n[nH]c2c1C(c1cc(Cl)cc(Cl)c1)(C(C)C)C(C#N)=C(N)O2 (racemic) [HK-14]
IC50 (human SHMT2; Table A): 0.131 µM
IC50 (human SHMT1; Table A): 0.067 µM

Cc1n[nH]c2c1C(c1cc(Cl)cc(C(F)(F)F)c1)(C(C)C)C(C#N)=C(N)O2 (racemic) [HK-15]
IC50 (human SHMT2; Table A): 0.035 µM
IC50 (human SHMT1; Table A): 0.02 µM
inhibition of human MTHFD2 in enzymatic assays (human MTHFD2): do not inhibit

Cc1n[nH]c2c1C(c1cc(C(F)(F)F)cc(C(F)(F)F)c1)(C(C)C)C(C#N)=C(N)O2 (racemic) [HK-16]
inhibition of human MTHFD2 in enzymatic assays (human MTHFD2): do not inhibit
AICAR accumulation [1]: AICAR accumulation in a dose-dependent manner
SHMT serine metabolic activity in cells [2]: inhibited in cells by HK-16 in a dose-dependent manner

Cc1n[nH]c2c1C(c1cc(C(F)(F)F)cc(C(F)(F)F)c1)(C(C)C)C(C#N)=C(N)O2 (single isomer, unassigned) [HK-16 (PK-1)]
inhibition of cell growth (HEK293T cells; FIG. 5, 6): not inhibited
inhibition of cell growth (HEK293T cells; FIG. 5, 6, listed as HK-16-P1): significantly less or no effect
inhibition of cell growth (HEK293T cells; FIG. 5, 6, listed as Peak 1): not appreciably inhibited; also recorded: little or no activity
inhibition of cell growth ([3]; FIG. 6, listed as HK-16-P1): significantly less or no effect
inhibition of cell growth ([3]; FIG. 6, listed as Peak 1): Some, although a lower degree of activity
inhibition of cell growth ([4]; FIG. 6, listed as HK-16-P1): significantly less or no effect
inhibition of cell growth ([4]; FIG. 6, listed as Peak 1): Some, although a lower degree of activity
inhibition of cancer cell growth ([5]; listed as HK-16-P1): does not inhibit cell growth

Cc1n[nH]c2c1C(c1cccc(Cl)c1)(C1CCC1)C(C#N)=C(N)O2 (stereo not shown) [HK-3]
IC50 (human SHMT2; Table A): 1.19 µM
IC50 (human SHMT2; table of Example 6): 1.19 µM

COc1cccc(C2(C(C)C)C(C#N)=C(N)Oc3[nH]nc(C)c32)c1 (stereo not shown) [HK-6]
IC50 (human SHMT2; Table A): 4.58 µM
IC50 (human SHMT2; table of Example 6): 4.58 µM

Cc1n[nH]c2c1C(c1cccc(Cl)c1)(C(C)C)C(C#N)=C(N)O2 (stereo not shown) [HK-7]
IC50 (human SHMT2; Table A): 0.401 µM
IC50 (human SHMT2; table of Example 6): 0.401 µM

COc1cc(Cl)cc(C2(C3CCC3)C(C#N)=C(N)Oc3[nH]nc(C)c32)c1 (stereo not shown) [HK-9]
IC50 (human SHMT2; Table A): 3.46 µM
IC50 (human SHMT2; table of Example 6): 3.46 µM

Cc1n[nH]c2c1C(c1cc(Cl)cc(C(F)(F)F)c1)(C1CCC1)C(C#N)=C(N)O2 (stereo not shown) [HK-11]
IC50 (human SHMT2; Table A): 0.1 µM
IC50 (human SHMT2; table of Example 6): 0.1 µM

Cc1n[nH]c2c1C(c1cc(C(F)(F)F)cc(C(F)(F)F)c1)(C1CCC1)C(C#N)=C(N)O2 (stereo not shown) [HK-12]
IC50 (human SHMT2; Table A): 0.168 µM
IC50 (human SHMT2; table of Example 6): 0.168 µM
IC50 (human SHMT1; Table A): 0.206 µM
IC50 (human SHMT1; table of Example 6): 0.206 µM

COc1cc(Cl)cc(C2(C(C)C)C(C#N)=C(N)Oc3[nH]nc(C)c32)c1 (stereo not shown) [HK-13]
IC50 (human SHMT2; Table A): 0.5 µM
IC50 (human SHMT2; table of Example 6): 0.5 µM

Cc1n[nH]c2c1C(c1cc(C(F)(F)F)cc(C(F)(F)F)c1)(C(C)C)C(C#N)=C(N)O2 (stereo not shown) [HK-16 (PK-2)]
anti-SHMT2 activity of resolved enantiomers of HK-16 (human SHMT2; FIG. 4(a)): confined to the enantiomer represented by “Peak 2”
activity against SHMT1 in an in vitro enzyme assay (human SHMT1; FIG. 4(b)): active
rescue of growth inhibitory effects by formate (HEK293T cells; compound at 10 μM, co-culture with formate at 1 mM, FIG. 8): rescued
inhibition of cell growth (HEK293T cells; FIG. 5, 6, listed as HK-16-P2): active
inhibition of cell growth (HEK293T cells; FIG. 5, 6, listed as Peak 2): inhibited in a dose-dependent manner; also recorded: inhibited cell growth
inhibition of cell growth ([3]; FIG. 6, listed as HK-16-P2): active; also recorded: increased sensitivity to inhibition
inhibition of cell growth ([3]; FIG. 6, listed as Peak 2): inhibited cell growth
inhibition of cell growth ([4]; FIG. 6, listed as HK-16-P2): active; also recorded: increased sensitivity to inhibition
inhibition of cell growth ([4]; FIG. 6, listed as Peak 2): inhibited cell growth
inhibition of cancer cell growth ([6]; listed as HK-16 (peak 2)): more sensitive
inhibition of cancer cell growth ([6]; listed as HK-16-P2): significantly more sensitive; also recorded: inhibited growth
inhibition of cancer cell growth ([5]; listed as HK-16-P2): inhibits cancer cell growth; also recorded: inhibited growth

Cc1nn(C)c2c1C(c1cc(C(F)(F)F)cc(C(F)(F)F)c1)(C(C)C)C(C#N)=C(N)O2 (stereo not shown) [KDG-4]
IC50 (human SHMT2; table of Example 6): > 5 µM
IC50 (human SHMT1; table of Example 6): > 5 µM

Cc1nn(-c2ccccc2)c2c1C(c1cc(C(F)(F)F)cc(C(F)(F)F)c1)(C(C)C)C(C#N)=C(N)O2 (stereo not shown) [KDG-5]
IC50 (human SHMT2; table of Example 6): > 5 µM
IC50 (human SHMT1; table of Example 6): > 5 µM

CC(C)c1n[nH]c2c1C(c1cc(C(F)(F)F)cc(C(F)(F)F)c1)(C(C)C)C(C#N)=C(N)O2 (stereo not shown) [KDG-12]
IC50 (human SHMT2; table of Example 6): 0.071 µM
IC50 (human SHMT1; table of Example 6): 0.0093 µM
